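Method: 48-hour compound exposure of cells in 96-well plates, five concentrations, linear interpolation of endpoints. GI50: concentration for 50% inhibition of growth.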 Active and inactive are the calls of the source. Rule as the data show it: active = GI50 up to about 1.1 µM and inactive = higher. Square brackets hold non-standard residues; d marks the D form. Peptide text beside a SMILES is read from it. * marks the point of attachment. ξ: configuration not given here. ξF = NC(Cc1ccccc1)C(=O)O; Cbz = O=C(OCc1ccccc1)*; Aib = CC(C)(N)C(=O)O
How the values were obtained:
Assay in all cases: NCI anticancer screen, dose series, 48 h
[1] = test system: CCRF-CEM
[2] = test system: Hs-578T
[3] = test system: IGROV-1
[4] = test system: KM12
[5] = test system: M14
[6] = test system: MCF7
[7] = test system: MDA-MB-231
[8] = test system: NCI-H23
[9] = test system: NCI-H522
[10] = test system: RPMI-8226
[11] = test system: RXF 393
[12] = test system: SK-OV-3
[13] = test system: SN12C
[14] = test system: SNB-19
[15] = test system: SW-620
[16] = test system: T47D
[17] = test system: UACC-257
[18] = test system: UACC-62
[19] = test system: UO-31
[20] = test system: SF-539

Row | Structure (SMILES) | GI50 [1] | GI50 [2] | GI50 [3] | GI50 [4] | GI50 [5] | GI50 [6] | GI50 [7] | GI50 [8] | GI50 [9] | GI50 [10] | GI50 [11] | GI50 [12] | GI50 [13] | GI50 [14] | GI50 [15] | GI50 [16] | GI50 [17] | GI50 [18] | GI50 [19] | GI50 [20]
1 | O=C1CCC(c2ccccc2)(c2ccccc2)CC1 | 19.8 µM (inactive) | 81.1 µM (inactive) | > 100 µM (inactive) | > 100 µM (inactive) | 65.8 µM (inactive) | 46 µM (inactive) | > 100 µM (inactive) | 57.7 µM (inactive) | 71.3 µM (inactive) | 30.7 µM (inactive) | > 100 µM (inactive) | > 100 µM (inactive) | 38.1 µM (inactive) | > 100 µM (inactive) | 82.2 µM (inactive) | 41.5 µM (inactive) | > 100 µM (inactive) | > 100 µM (inactive) | 65 µM (inactive) | 
2 | COC(=O)CCc1ccc2c(c1)CCC2 | > 100 µM (inactive) | > 100 µM (inactive) | > 100 µM (inactive) | > 100 µM (inactive) | > 100 µM (inactive) | > 100 µM (inactive) | > 100 µM (inactive) | > 100 µM (inactive) | > 100 µM (inactive) | > 100 µM (inactive) |  | > 100 µM (inactive) | > 100 µM (inactive) | > 100 µM (inactive) | > 100 µM (inactive) | > 100 µM (inactive) | > 100 µM (inactive) | > 100 µM (inactive) | > 100 µM (inactive) | > 100 µM (inactive)
3 | O=C1CSC(c2ccc(Cl)cc2)N1c1ccc(-n2c(-c3ccccc3)nc3ccccc3c2=O)cc1 (configuration not stated) | 45.7 µM (inactive) | 52.7 µM (inactive) | 31.9 µM (inactive) | 24.4 µM (inactive) | > 100 µM (inactive) | 30.8 µM (inactive) | 33.2 µM (inactive) | > 100 µM (inactive) | 25.9 µM (inactive) | > 100 µM (inactive) |  | > 100 µM (inactive) | > 100 µM (inactive) | > 100 µM (inactive) | 76 µM (inactive) | 8.36 µM (inactive) | > 100 µM (inactive) | 19.8 µM (inactive) | 5.48 µM (inactive) | > 100 µM (inactive)
4 | CC(C)(C)/C(O)=C\c1nc2cc(F)c(F)cc2[nH]c1=O | > 100 µM (inactive) | > 100 µM (inactive) | > 100 µM (inactive) | > 100 µM (inactive) | > 100 µM (inactive) | > 100 µM (inactive) | 25.1 µM (inactive) | > 100 µM (inactive) |  |  | > 100 µM (inactive) | > 100 µM (inactive) |  | > 100 µM (inactive) | > 100 µM (inactive) | > 100 µM (inactive) | > 100 µM (inactive) | > 100 µM (inactive) | > 100 µM (inactive) | > 100 µM (inactive)
5 | O=C1CN(C(=O)C2CCCN2C(=O)C2CCCN2)C(=O)CN1 (configuration not stated) | > 100 µM (inactive) | > 100 µM (inactive) | > 100 µM (inactive) | > 100 µM (inactive) | > 100 µM (inactive) | > 100 µM (inactive) | > 100 µM (inactive) | > 100 µM (inactive) | > 100 µM (inactive) | > 100 µM (inactive) | > 100 µM (inactive) | > 100 µM (inactive) | > 100 µM (inactive) | > 100 µM (inactive) | > 100 µM (inactive) | > 100 µM (inactive) |  | > 100 µM (inactive) | > 100 µM (inactive) | 
6 | COc1cc2c(cc1OC)C1C=NC(C2)c2cc(OC)c(OC)cc21 (configuration not stated) |  | > 100 µM (inactive) | 96.4 µM (inactive) | > 100 µM (inactive) | > 100 µM (inactive) | 60.1 µM (inactive) | > 100 µM (inactive) |  | 46.3 µM (inactive) | 60.3 µM (inactive) |  | > 100 µM (inactive) | > 100 µM (inactive) | > 100 µM (inactive) | > 100 µM (inactive) | 90.8 µM (inactive) | > 100 µM (inactive) | > 100 µM (inactive) | 60.1 µM (inactive) | > 100 µM (inactive)
7 | CC(=O)c1ccc2c(c1)N(CCCN1CCN(CCO)CC1)c1ccccc1C2 | 11.7 µM (inactive) | 14.8 µM (inactive) | 17.3 µM (inactive) | 15.5 µM (inactive) | 13.6 µM (inactive) |  | 13.2 µM (inactive) | 15.8 µM (inactive) | 16.3 µM (inactive) | 12.9 µM (inactive) | 15.4 µM (inactive) | 16.3 µM (inactive) | 16.9 µM (inactive) | 18.9 µM (inactive) | 14.5 µM (inactive) | 12.3 µM (inactive) | 5.78 µM (inactive) | 10.8 µM (inactive) | 23.8 µM (inactive) | 16.7 µM (inactive)
8 | CC(C)OC(=O)NNc1cc(Cl)ccc1Cl | 59.7 µM (inactive) | 81.5 µM (inactive) | 55.5 µM (inactive) | 65.3 µM (inactive) | > 100 µM (inactive) | 57.9 µM (inactive) | > 100 µM (inactive) | > 100 µM (inactive) | 31.5 µM (inactive) | 44.5 µM (inactive) |  | > 100 µM (inactive) | > 100 µM (inactive) | > 100 µM (inactive) | > 100 µM (inactive) | 42 µM (inactive) | 39.7 µM (inactive) | 43.7 µM (inactive) | > 100 µM (inactive) | > 100 µM (inactive)
9 | COc1ccc2[nH]cc(CN3CCC(CO)(c4ccccc4)CC3)c2c1 | 21.6 µM (inactive) | 25.7 µM (inactive) | 38.5 µM (inactive) | 17.9 µM (inactive) | 17.3 µM (inactive) | 20.8 µM (inactive) | 26.7 µM (inactive) | 91.6 µM (inactive) | 18.9 µM (inactive) | 22.6 µM (inactive) | 71.4 µM (inactive) | 0.53 µM (active) | 72.8 µM (inactive) | > 100 µM (inactive) | 21.2 µM (inactive) | 20.9 µM (inactive) | 17.5 µM (inactive) | 25.9 µM (inactive) | 22.4 µM (inactive) | 
10 | CCOC(=O)C(Cl)(Cl)/S(=N\S(=O)(=O)c1ccccc1)NC(=O)c1ccccc1 (configuration not stated) | > 100 µM (inactive) | > 100 µM (inactive) | > 100 µM (inactive) | > 100 µM (inactive) | > 100 µM (inactive) | > 100 µM (inactive) | > 100 µM (inactive) | > 100 µM (inactive) |  | > 100 µM (inactive) | > 100 µM (inactive) | > 100 µM (inactive) | > 100 µM (inactive) | > 100 µM (inactive) | > 100 µM (inactive) | > 100 µM (inactive) | > 100 µM (inactive) | > 100 µM (inactive) | > 100 µM (inactive) | > 100 µM (inactive)
11 | CC(C)CCCC(C)[C@H]1CC[C@H]2N/C(=N/c3ccccc3)CCC[C@]12C (some centres not stated) | 2.51 µM (inactive) | 2.26 µM (inactive) | 1.61 µM (inactive) | 2.43 µM (inactive) | 1.87 µM (inactive) | 1.79 µM (inactive) | 1.14 µM (inactive) | 1.72 µM (inactive) |  | 1.65 µM (inactive) | 1.42 µM (inactive) | 2.03 µM (inactive) | 1.77 µM (inactive) | 2.89 µM (inactive) | 3.21 µM (inactive) | 3.09 µM (inactive) | 2.12 µM (inactive) | 1.85 µM (inactive) | 1.62 µM (inactive) | 1.61 µM (inactive)
12 | CC(C)(NC(=O)OCc1ccccc1)C(=O)NC(Cc1ccccc1)C(=O)O (configuration not stated) (Cbz-[Aib]-[ξF]-OH) | > 100 µM (inactive) | > 100 µM (inactive) | > 100 µM (inactive) | > 100 µM (inactive) | > 100 µM (inactive) | > 100 µM (inactive) | > 100 µM (inactive) | > 100 µM (inactive) | > 100 µM (inactive) | > 100 µM (inactive) |  | > 100 µM (inactive) | > 100 µM (inactive) | > 100 µM (inactive) | > 100 µM (inactive) | > 100 µM (inactive) | > 100 µM (inactive) | > 100 µM (inactive) | > 100 µM (inactive) | > 100 µM (inactive)
13 | O=C1C(CO)=C[C@@H](O)[C@H]2O[C@@H]12 [EPOXYDON] | 30.7 µM (inactive) | > 100 µM (inactive) | > 100 µM (inactive) | > 100 µM (inactive) | > 100 µM (inactive) | 21.7 µM (inactive) | > 100 µM (inactive) | 65.6 µM (inactive) | > 100 µM (inactive) | 33.3 µM (inactive) |  | > 100 µM (inactive) | 18.4 µM (inactive) |  | 37.9 µM (inactive) | > 100 µM (inactive) |  | > 100 µM (inactive) | > 100 µM (inactive) | 
14 | C[C@]12CC[C@H]3[C@@H](CC[C@]4(O)C[C@@H](O)CC[C@]34C=O)[C@@]1(O)CC[C@@H]2C1=CC(=O)OC1 [STROPHANTHIDIN] | 0.488 µM (active) | 0.682 µM (active) | 0.453 µM (active) | 1.94 µM (inactive) | 1.07 µM (active) |  | 2.65 µM (inactive) | 0.265 µM (active) | 0.0942 µM (active) | 0.506 µM (active) | 0.274 µM (active) | 0.568 µM (active) | 0.418 µM (active) | 1.58 µM (inactive) | 0.528 µM (active) | 0.697 µM (active) | 0.766 µM (active) | 1.52 µM (inactive) | 0.444 µM (active) | 0.294 µM (active)
15 | COc1ccc(/C=C/c2cc(OC)cc(=O)o2)cc1 [YANGONIN] | > 100 µM (inactive) | 35.5 µM (inactive) | > 100 µM (inactive) | 57.4 µM (inactive) | 68.4 µM (inactive) | > 100 µM (inactive) | > 100 µM (inactive) | 51.8 µM (inactive) |  | > 100 µM (inactive) | 44.2 µM (inactive) | 91.4 µM (inactive) | > 100 µM (inactive) | 50.4 µM (inactive) | > 100 µM (inactive) | > 100 µM (inactive) | > 100 µM (inactive) | 63.1 µM (inactive) | > 100 µM (inactive) | 10.2 µM (inactive)
